Each compound was assayed against phosphorylated active hERK2 enzyme (Homo sapiens, UniProt P28482) (assay: Active human ERK2 (hERK2) Activity Assay (IMAP-FP)). Details: 10 point titration, 3 μM starting concentration, 0.5 nM hERK2, 30 μM ATP, 60 minutes reaction.
Format: biochemical
Procedure: Activated ERK2 activity was determined in an IMAP-FP assay (Molecular Devices). Using this assay format, the potency (IC50) of each compound was determined from a 10 point (1:3 serial dilution, 3 μM starting compound concentration) titration curve using the following outlined procedure. […] Following a 15 minute compound & enzyme incubation, each reaction was initiated by the addition of 10 μL kinase buffer containing 2.45 μM ERK2 IMAP substrate peptides and 75 μM ATP. The final reaction in each well of 25 μL consists of 0.5 nM hERK2, 900 nM unlabeled peptide, 80 nM labeled-peptide, and 30 μM ATP. Phosphorylation reactions were allowed to proceed for 60 minutes and were immediately quenched by the addition of 60 μL IMAP detection beads (1:1000 dilutions) in IMAP binding buffer (Molecular Devices) with 24 mM NaCl. Plates were read on EnVision reader after 60 minutes binding equilibration using Fluorescence Polarization protocol (Perkin Elmer).

phosphorylated active hERK2 enzyme, sequence (P28482 whole entry): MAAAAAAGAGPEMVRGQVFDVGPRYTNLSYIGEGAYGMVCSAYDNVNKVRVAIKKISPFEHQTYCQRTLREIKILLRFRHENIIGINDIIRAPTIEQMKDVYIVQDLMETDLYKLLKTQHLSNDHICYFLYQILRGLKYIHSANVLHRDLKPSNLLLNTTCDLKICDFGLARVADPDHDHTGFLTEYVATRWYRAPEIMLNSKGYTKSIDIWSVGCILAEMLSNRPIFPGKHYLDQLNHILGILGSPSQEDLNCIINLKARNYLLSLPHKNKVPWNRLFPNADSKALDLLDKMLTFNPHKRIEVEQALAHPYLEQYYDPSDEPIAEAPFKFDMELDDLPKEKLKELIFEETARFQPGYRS

Point of comparison: `Cn1ncc2cc3nc(c21)OCCOC[C@H](c1ccccc1)NC(=O)N3` [Example 29, (9S)-1-methyl-9-phenyl-1,6,9,10,12,13-hexahydro-5,15-(azeno)pyrazolo[4,3-i][1,12,4,6]dioxadiazacyclotetradecin-7(8H)-one], IC50 49.2 nM. Against it:
- CCn1ncc2cc3nc(c21)OCCC[C@H](O)[C@H](c1ccccc1)NC(=O)N3 [Example 25, (9S,10S)-1-Ethyl-10-hydroxy-9-phenyl-1,6,8,9,10,11,12,13-octahydro-7H-5,15-(azeno)pyrazolo[3,4-c][1,7,9]oxadiazacyclotetradecin-7-one] — 2-fold lower, 24.3 nM
- O=C1Nc2cc3cnn(C(F)F)c3c(n2)/C=C\COC[C@H](c2ccccc2)N1 [Example 10, (9S,13Z)-1-(Difluoromethyl)-9-phenyl-1,6,9,10-tetrahydro-12H-5,15-(azeno)pyrazolo[4,3-i][1,4,6]oxadiazacyclotetradecin-7(8H)-one] — 12-fold lower, 4.16 nM
- Cc1c2nnn1Cc1nc(cc3cnn(C)c13)NC(=O)NC(c1ccccc1)C2 (stereo not shown) [Example 40, 1,18-Dimethyl-9-phenyl-1,6,9,10-tetrahydro-5,16-(azeno)-14,11-(metheno)pyrazolo[4,3-l][1,2,3,7,9]pentaazacyclopentadecin-7(8H,15H)-one] — 40-fold higher, 1950 nM
- Cn1ncc2cc3nc(c21)OCCC[C@H](O)[C@H](c1ccccc1)NC(=O)N3 [Example 23, (9S,10S)-10-Hydroxy-1-methyl-9-phenyl-1,6,8,9,10,11,12,13-octahydro-7H-5,15-(azeno)pyrazolo[3,4-c][1,7,9]oxadiazacyclotetradecin-7-one] — within 1.5-fold, 45.1 nM
- CCn1ncc2cc3nc(c21)OCCC[C@@](C)(O)[C@H](c1ccccc1)NC(=O)N3 [Example 28, (9S,10R)-1-Ethyl-10-hydroxy-10-methyl-9-phenyl-1,6,8,9,10,11,12,13-octahydro-7H-5,15-(azeno)pyrazolo[3,4-c][1,7,9]oxadiazacyclotetradecin-7-one] — 2.9-fold higher, 144 nM
- Cn1ncc2cc3nc(c21)CNCCCC(c1ccccc1)NC(=O)N3 (stereo not shown) [Example 31, 1-Methyl-9-phenyl-1,6,9,10,11,12,13,14-octahydro-5,15-(azeno)pyrazolo[3,4-k][1,3,8]triazacyclotetradecin-7(8H)-one] — 17-fold higher, 832 nM
- COCCn1ncc2cc3nc(c21)Cn1cc(nn1)CC(c1ccccc1)NC(=O)N3 (stereo not shown) [Example 36, 1-(2-Methoxyethyl)-9-phenyl-1,6,9,10-tetrahydro-5,16-(azeno)-14,11-(metheno)pyrazolo[4,3-l][1,2,3,7,9]pentaazacyclopentadecin-7(8H,15H)-one] — 8.5-fold higher, 416 nM
- CCn1ncc2cc3nc(c21)CCCO[C@H]([C@H](C)O)[C@H](c1ccccc1)NC(=O)N3 [Example 46, (9 S,10 S)-1-Ethyl-10-[(1 S)-1-hydroxyethyl]-9-phenyl-1,6,9,10,13,14-hexahydro-12H-5,15-(azeno)pyrazolo[4,3-i][1,4,6]oxadiazacyclotetradecin-7(8H)-one] — within 1.5-fold, 48.4 nM
- O=C1Nc2cc3cnn(C(F)F)c3c(n2)CCCOC[C@H](c2ccccc2)N1 [Example 9, (9S)-1-(Difluoromethyl)-9-phenyl-1,6,9,10,13,14-hexahydro-12H-5,15-(azeno)pyrazolo[4,3-i][1,4,6]oxadiazacyclotetradecin-7(8H)-one] — 3.9-fold lower, 12.5 nM
- Cn1ncc2cc3nc(c21)NCCCC[C@H](c1ccccc1)NC(=O)N3 [Example 19, (9R)-1-Methyl-9-phenyl-1,6,9,10,11,12,13,14-octahydro-5,15-(azeno)pyrazolo[4,3-f][1,3,9]triazacyclotetradecin-7(8 H)-one] — 5.3-fold lower, 9.32 nM
- CCn1ncc2cc3nc(c21)C[C@@H](O)COC[C@H](c1cccc(Cl)c1)NC(=O)N3 [Example 55, (9S,13R)-9-(3-chlorophenyl)-1-ethyl-13-hydroxy-1,6,9,10,13,14-hexahydro-12H-5,15-(azeno)pyrazolo[4,3-i][1,4,6]oxadiazacyclotetradecin-7(8H)-one] — 13-fold lower, 3.83 nM
- CCn1ncc2cc3nc(c21)C[C@@H](O)COC[C@H](c1cccc(F)c1)NC(=O)N3 [Example 51, (9S,13R)-1-Ethyl-9-(3-fluorophenyl)-13-hydroxy-1,6,9,10,13,14-hexahydro-12H-5,15-(azeno)pyrazolo[4,3-i][1,4,6]oxadiazacyclotetradecin-7(8H)-one] — 13-fold lower, 3.91 nM
- CCn1ncc2cc3nc(c21)C[C@H](O)COC[C@H](c1ccc(OC)c(F)c1)NC(=O)N3 [Example 50, (9S,13S)-1-Ethyl-9-(3-fluoro-4-methoxyphenyl)-13-hydroxy-1,6,9,10,13,14-hexahydro-12H-5,15-(azeno)pyrazolo[4,3-i][1,4,6]oxadiazacyclotetradecin-7(8H)-one] — 7.8-fold lower, 6.28 nM
- CCn1ncc2cc3nc(c21)C[C@@H](O)COC[C@H](c1ccc(Cl)c(F)c1)NC(=O)N3 [Example 53, (9S,13R)-1-Ethyl-9-(4-chloro-3-fluorophenyl)-13-hydroxy-1,6,9,10,13,14-hexahydro-12H-5,15-(azeno)pyrazolo[4,3-i][1,4,6]oxadiazacyclotetradecin-7(8H)-one] — 13-fold lower, 3.91 nM
- CCn1ncc2cc3nc(c21)NCCCCC(c1ccccc1)NC(=O)N3 (stereo not shown) [Example 18, 1-Ethyl-9-phenyl-1,6,9,10,11,12,13,14-octahydro-5,15-(azeno)pyrazolo[4,3-f][1,3,9]triazacyclotetradecin-7(8H)-one] — 3.1-fold lower, 15.7 nM
- Cn1ncc2cc3nc(c21)NCCOC[C@H](c1ccccc1)NC(=O)N3 [Example 22, (9 S)-1-Methyl-9-phenyl-1,6,9,10,13,14-hexahydro-12H-5,15-(azeno)pyrazolo[4,3-i][1,4,6,12]oxatriazacyclotetradecin-7(8 H)-one] — 6.2-fold lower, 7.91 nM
- CCn1ncc2cc3nc(c21)/C=C\COC(C)(C)[C@H](c1ccccc1)NC(=O)N3 [Example 41, (9S,13Z)-1-Ethyl-10,10-dimethyl-9-phenyl-1,6,9,10-tetrahydro-12H-5,15-(azeno)pyrazolo [4,3-i][1,4,6]oxadiazacyclotetradecin-7(8H)-one] — 13-fold higher, 634 nM
- CN1CCCCC(c2ccccc2)NC(=O)Nc2cc3cnn(C)c3c1n2 (stereo not shown) [Example 20, 1,14-Dimethyl-9-phenyl-1,6,9,10,11,12,13,14-octahydro-5,15-(azeno)pyrazolo[4,3-f][1,3,9]triazacyclotetradecin-7(8H)-one] — 1.7-fold higher, 85.7 nM
- CCn1ncc2cc3nc(c21)[C@@H]1C[C@@H]1COC[C@H](c1ccccc1)NC(=O)N3 [Example 7, (9S,12aS,13 aR)-1-Ethyl-9-phenyl-1,6,9,10,12,12a,13,13a-octahydro-5,14-(azeno)cyclopropa[l]pyrazolo[4,3-i][1,4,6]oxadiazacyclotetradecin-7(8H)-one] — 4.2-fold lower, 11.6 nM
- CCn1ncc2cc3nc(c21)CCCO[C@H](CO)[C@H](c1ccccc1)NC(=O)N3 [Example 14, (9S,10S)-1-Ethyl-10-(hydroxymethyl)-9-phenyl-1,6,9,10,13,14-hexahydro-12H-5,15-(azeno)pyrazolo[4,3-i][1,4,6]oxadiazacyclotetradecin-7(8H)-one] — 14-fold lower, 3.44 nM
- CCn1ncc2cc3nc(c21)CC(C)(O)COC[C@H](c1ccccc1)NC(=O)N3 (stereo partly drawn) [Example 5, (9S)-1-Ethyl-13-hydroxy-13-methyl-9-phenyl-1,6,9,10,13,14-hexahydro-12H-5,15-(azeno)pyrazolo[4,3-i][1,4,6]oxadiazacyclotetradecin-7(8H)-one] — 2.3-fold higher, 114 nM
- Cn1ncc2cc3nc(c21)OCCCC[C@H](c1ccccc1)NC(=O)N3 [Example 17, (9R)-1-Methyl-9-phenyl-1,6,8,9,10,11,12,13-octahydro-7H-5,15-(azeno)pyrazolo [3,4-c][1,7,9]oxadiazacyclotetradecin-7-one] — within 1.5-fold, 58.9 nM
- Cc1cc(-n2ncc3cc4nc(c32)Cn2cc(nn2)CC(c2ccccc2)NC(=O)N4)ccn1 (single isomer, unassigned) [Example 38, 1-(2-Methylpyridin-4-yl)-9-phenyl-1,6,9,10-tetrahydro-5,16-(azeno)-14,11-(metheno)pyrazolo[4,3-l][1,2,3,7,9]pentaazacyclopentadecin-7(8H,15H)-one] — 1.8-fold higher, 87.3 nM
- Cn1ncc2cc3nc(c21)Cn1cc(nn1)CC(c1ccccc1)NC(=O)N3 (stereo not shown) [Example 34, 1-methyl-9-phenyl-1,6,9,10-tetrahydro-5,16-(azeno)-14,11-(metheno)pyrazolo[4,3-l][1,2,3,7,9]pentaazacyclopentadecin-7(8H,15H)-one] — 1.8-fold higher, 89.9 nM
- CCn1ncc2cc3nc(c21)CCCOC(C)(C)[C@H](c1ccccc1)NC(=O)N3 [Example 11, (9S)-1-Ethyl-10, 10-dimethyl-9-phenyl-1,6,9,10,13,14-hexahydro-12H-5,15-(azeno)pyrazolo [4,3-i][1,4,6]oxadiazacyclotetradecin-7(8H)-one] — 3-fold lower, 16.2 nM
- CCn1ncc2cc3nc(c21)CC(=O)COC[C@H](c1ccccc1)NC(=O)N3 [Example 43, (9 S)-1-Ethyl-9-phenyl-1,6,9,10-tetrahydro-12H-5,15-(azeno)pyrazolo [4,3-i][1,4,6]oxadiazacyclotetradecine-7,13(8H,14H)-dione] — 4.4-fold lower, 11.2 nM
- CCn1ncc2cc3nc(c21)CCCO[C@@H]([C@H](C)O)[C@@H](c1ccccc1)NC(=O)N3 [Example 48, (9R,10R)-1-Ethyl-10-[(1S)-1-hydroxyethyl]-9-phenyl-1,6,9,10,13,14-hexahydro-12H-5,15-(azeno)pyrazolo[4,3-i][1,4,6]oxadiazacyclotetradecin-7(8H)-one] — 12-fold lower, 4.11 nM
- CCn1ncc2cc3nc(c21)C[C@@H](O)COC[C@H](c1ccc(OC)c(F)c1)NC(=O)N3 [Example 49, (9S,13R)-1-Ethyl-9-(3-fluoro-4-methoxyphenyl)-13-hydroxy-1,6,9,10,13,14-hexahydro-12H-5,15-(azeno)pyrazolo[4,3-i][1,4,6]oxadiazacyclotetradecin-7(8H)-one] — 14-fold lower, 3.4 nM
- CCn1ncc2cc3nc(c21)C[C@H](O)COC[C@H](c1cccc(F)c1)NC(=O)N3 [Example 52, (9S,13S)-1-Ethyl-9-(3-fluorophenyl)-13-hydroxy-1,6,9,10,13,14-hexahydro-12H-5,15-(azeno)pyrazolo[4,3-i][1,4,6]oxadiazacyclotetradecin-7(8H)-one] — 3.4-fold lower, 14.5 nM
- Cn1ncc2cc3nc(c21)CCCCCC(c1ccccc1)NC(=O)N3 (stereo not shown) [Example 30, 1-Methyl-9-phenyl-1,6,9,10,11,12,13,14-octahydro-5,15-(azeno)pyrazolo[4,3-f][1,3]diazacyclotetradecin-7(8H)-one] — 4.7-fold higher, 230 nM
